# Results as given in US9963445B2, “Chemical compounds” (SYNGENTA PARTICIPATIONS AG, priority 2013, dated 2018).
# Tested on: Abutilon theophrasti
# Assay: Pre-emergence herbicidal activity, glasshouse pot test
# Assay type: in vivo
# Conditions: pre-emergence spray, rate 1000 g/ha, evaluated after 13 days, scale 0-5
# Summary of the method: (§1)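 Glasshouse conditions were 24/16 °C day/night with 14 h light and 65% humidity throughout. Soil was sprayed before emergence, one day after sowing, using an acetone/water (50:50) formulation with 0.5% Tween 20; injury was scored 0–5 after 13 days.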
row,SMILES,"ABUTH damage score, application pre-emergence"
1,COC1=C(C)C(O)N(c2cc(C(F)(F)F)c(-c3cncnc3)cn2)C1=O (stereo not drawn) [AI13],2
2,COC1=C(C)C(O)N(c2cc(C(F)(F)F)c(-c3cnc(OC)nc3)cn2)C1=O (stereo not drawn) [AI14],1
3,COC1=C(C)C(O)N(c2cc(C(F)(F)F)c(OC)cn2)C1=O (stereo not drawn) [AI15],2
4,COC1=C(C)C(O)N(c2cc(C(F)(F)Cl)ccn2)C1=O (stereo not drawn) [AI16],1

# Tested on: zea mays
# Assay: as above
# Assay type: in vivo
# Conditions: pre-emergence spray, rate 1000 g/ha, evaluated after 13 days, scale 0-5
# Summary of the method: as §1
row,SMILES,"ZEAMX damage score, application pre-emergence"
1,COC1=C(C)C(O)N(c2cc(C(F)(F)F)c(-c3cncnc3)cn2)C1=O (stereo not drawn) [AI13],3
2,COC1=C(C)C(O)N(c2cc(C(F)(F)F)c(-c3cnc(OC)nc3)cn2)C1=O (stereo not drawn) [AI14],1
3,COC1=C(C)C(O)N(c2cc(C(F)(F)F)c(OC)cn2)C1=O (stereo not drawn) [AI15],3
4,COC1=C(C)C(O)N(c2cc(C(F)(F)Cl)ccn2)C1=O (stereo not drawn) [AI16],2

# Tested on: Amaranthus retroflexus
# Assay: as above
# Assay type: in vivo
# Conditions: pre-emergence spray, rate 1000 g/ha, evaluated after 13 days, scale 0-5
# Summary of the method: as §1
row,SMILES,"AMARE damage score, application pre-emergence"
1,COC1=C(C)C(O)N(c2cc(C(F)(F)F)c(-c3cncnc3)cn2)C1=O (stereo not drawn) [AI13],4
2,COC1=C(C)C(O)N(c2cc(C(F)(F)F)c(-c3cnc(OC)nc3)cn2)C1=O (stereo not drawn) [AI14],5
3,COC1=C(C)C(O)N(c2cc(C(F)(F)F)c(OC)cn2)C1=O (stereo not drawn) [AI15],5
4,COC1=C(C)C(O)N(c2cc(C(F)(F)Cl)ccn2)C1=O (stereo not drawn) [AI16],5

# Tested on: Setaria faberi
# Assay: as above
# Assay type: in vivo
# Conditions: pre-emergence spray, rate 1000 g/ha, evaluated after 13 days, scale 0-5
# Summary of the method: as §1
row,SMILES,"SETFA damage score, application pre-emergence"
1,COC1=C(C)C(O)N(c2cc(C(F)(F)F)c(-c3cncnc3)cn2)C1=O (stereo not drawn) [AI13],2
2,COC1=C(C)C(O)N(c2cc(C(F)(F)F)c(-c3cnc(OC)nc3)cn2)C1=O (stereo not drawn) [AI14],3
3,COC1=C(C)C(O)N(c2cc(C(F)(F)F)c(OC)cn2)C1=O (stereo not drawn) [AI15],5
4,COC1=C(C)C(O)N(c2cc(C(F)(F)Cl)ccn2)C1=O (stereo not drawn) [AI16],5

# Tested on: Alopecurus myosuroides
# Assay: as above
# Assay type: in vivo
# Conditions: pre-emergence spray, rate 1000 g/ha, evaluated after 13 days, scale 0-5
# Summary of the method: as §1
row,SMILES,"ALOMY damage score, application pre-emergence"
1,COC1=C(C)C(O)N(c2cc(C(F)(F)F)c(-c3cncnc3)cn2)C1=O (stereo not drawn) [AI13],3
2,COC1=C(C)C(O)N(c2cc(C(F)(F)F)c(-c3cnc(OC)nc3)cn2)C1=O (stereo not drawn) [AI14],2
3,COC1=C(C)C(O)N(c2cc(C(F)(F)F)c(OC)cn2)C1=O (stereo not drawn) [AI15],4
4,COC1=C(C)C(O)N(c2cc(C(F)(F)Cl)ccn2)C1=O (stereo not drawn) [AI16],3

# Tested on: Echinochloa crus-galli
# Assay: as above
# Assay type: in vivo
# Conditions: pre-emergence spray, rate 1000 g/ha, evaluated after 13 days, scale 0-5
# Summary of the method: as §1
row,SMILES,"ECHCG damage score, application pre-emergence"
1,COC1=C(C)C(O)N(c2cc(C(F)(F)F)c(-c3cncnc3)cn2)C1=O (stereo not drawn) [AI13],3
2,COC1=C(C)C(O)N(c2cc(C(F)(F)F)c(-c3cnc(OC)nc3)cn2)C1=O (stereo not drawn) [AI14],2
3,COC1=C(C)C(O)N(c2cc(C(F)(F)F)c(OC)cn2)C1=O (stereo not drawn) [AI15],4
4,COC1=C(C)C(O)N(c2cc(C(F)(F)Cl)ccn2)C1=O (stereo not drawn) [AI16],5

# Tested on: Abutilon theophrasti
# Assay: Post-emergence herbicidal activity, glasshouse pot test
# Assay type: in vivo
# Parameters: key: 0 = no damage to plant, 5 = total damage to plant
# Conditions: Application post-emergence, rate 1000 g/ha, evaluated after 13 days
# Summary of the method: (§2)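 Damage rated 0 (none) to 5 (total) 13 days after spraying. Plants were treated post-emergence at 8 days after sowing, using an acetone/water (50:50) formulation with 0.5% Tween 20 diluted to an aqueous spray.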
row,SMILES,ABUTH herbicidal damage score
1,COC1=C(C)C(O)N(c2cc(C(F)(F)F)c(-c3cncnc3)cn2)C1=O (stereo not drawn) [AI13],5
2,COC1=C(C)C(O)N(c2cc(C(F)(F)F)c(-c3cnc(OC)nc3)cn2)C1=O (stereo not drawn) [AI14],5
3,COC1=C(C)C(O)N(c2cc(C(F)(F)F)c(OC)cn2)C1=O (stereo not drawn) [AI15],5
4,COC1=C(C)C(O)N(c2cc(C(F)(F)Cl)ccn2)C1=O (stereo not drawn) [AI16],5

# Tested on: zea mays
# Assay: as above
# Assay type: in vivo
# Parameters: key: 0 = no damage to plant, 5 = total damage to plant
# Conditions: Application post-emergence, rate 1000 g/ha, evaluated after 13 days
# Summary of the method: as §2
row,SMILES,ZEAMX herbicidal damage score
1,COC1=C(C)C(O)N(c2cc(C(F)(F)F)c(-c3cncnc3)cn2)C1=O (stereo not drawn) [AI13],4
2,COC1=C(C)C(O)N(c2cc(C(F)(F)F)c(-c3cnc(OC)nc3)cn2)C1=O (stereo not drawn) [AI14],3
3,COC1=C(C)C(O)N(c2cc(C(F)(F)F)c(OC)cn2)C1=O (stereo not drawn) [AI15],4
4,COC1=C(C)C(O)N(c2cc(C(F)(F)Cl)ccn2)C1=O (stereo not drawn) [AI16],3

# Tested on: Amaranthus retroflexus
# Assay: as above
# Assay type: in vivo
# Parameters: key: 0 = no damage to plant, 5 = total damage to plant
# Conditions: Application post-emergence, rate 1000 g/ha, evaluated after 13 days
# Summary of the method: as §2
row,SMILES,AMARE herbicidal damage score
1,COC1=C(C)C(O)N(c2cc(C(F)(F)F)c(-c3cncnc3)cn2)C1=O (stereo not drawn) [AI13],5
2,COC1=C(C)C(O)N(c2cc(C(F)(F)F)c(-c3cnc(OC)nc3)cn2)C1=O (stereo not drawn) [AI14],5
3,COC1=C(C)C(O)N(c2cc(C(F)(F)F)c(OC)cn2)C1=O (stereo not drawn) [AI15],5
4,COC1=C(C)C(O)N(c2cc(C(F)(F)Cl)ccn2)C1=O (stereo not drawn) [AI16],5

# Tested on: Setaria faberi
# Assay: as above
# Assay type: in vivo
# Parameters: key: 0 = no damage to plant, 5 = total damage to plant
# Conditions: Application post-emergence, rate 1000 g/ha, evaluated after 13 days
# Summary of the method: as §2
row,SMILES,SETFA herbicidal damage score
1,COC1=C(C)C(O)N(c2cc(C(F)(F)F)c(-c3cncnc3)cn2)C1=O (stereo not drawn) [AI13],5
2,COC1=C(C)C(O)N(c2cc(C(F)(F)F)c(-c3cnc(OC)nc3)cn2)C1=O (stereo not drawn) [AI14],5
3,COC1=C(C)C(O)N(c2cc(C(F)(F)F)c(OC)cn2)C1=O (stereo not drawn) [AI15],5
4,COC1=C(C)C(O)N(c2cc(C(F)(F)Cl)ccn2)C1=O (stereo not drawn) [AI16],5

# Tested on: Alopecurus myosuroides
# Assay: as above
# Assay type: in vivo
# Parameters: key: 0 = no damage to plant, 5 = total damage to plant
# Conditions: Application post-emergence, rate 1000 g/ha, evaluated after 13 days
# Summary of the method: as §2
row,SMILES,ALOMY herbicidal damage score
1,COC1=C(C)C(O)N(c2cc(C(F)(F)F)c(-c3cncnc3)cn2)C1=O (stereo not drawn) [AI13],5
2,COC1=C(C)C(O)N(c2cc(C(F)(F)F)c(-c3cnc(OC)nc3)cn2)C1=O (stereo not drawn) [AI14],4
3,COC1=C(C)C(O)N(c2cc(C(F)(F)F)c(OC)cn2)C1=O (stereo not drawn) [AI15],5
4,COC1=C(C)C(O)N(c2cc(C(F)(F)Cl)ccn2)C1=O (stereo not drawn) [AI16],4

# Tested on: Echinochloa crus-galli
# Assay: as above
# Assay type: in vivo
# Parameters: key: 0 = no damage to plant, 5 = total damage to plant
# Conditions: Application post-emergence, rate 1000 g/ha, evaluated after 13 days
# Summary of the method: as §2
row,SMILES,ECHCG herbicidal damage score
1,COC1=C(C)C(O)N(c2cc(C(F)(F)F)c(-c3cncnc3)cn2)C1=O (stereo not drawn) [AI13],5
2,COC1=C(C)C(O)N(c2cc(C(F)(F)F)c(-c3cnc(OC)nc3)cn2)C1=O (stereo not drawn) [AI14],5
3,COC1=C(C)C(O)N(c2cc(C(F)(F)F)c(OC)cn2)C1=O (stereo not drawn) [AI15],5
4,COC1=C(C)C(O)N(c2cc(C(F)(F)Cl)ccn2)C1=O (stereo not drawn) [AI16],5
